In patent US20250295109A1, “UNIVERSAL SYNERGIST FOR INSECT ATTRACTANTS” (North Carolina State University, priority 2022, published 2025):

Columns and labels:
Drosophila melanogaster [1] = experiment: dual choice trapping cage assay with commercial fruit fly traps and lure (TERRO); format: in vivo; details: 24 hours
Method: FIG. 7A is a schematic drawing showing a design for a dual choice free flight cage trapping assay used to determine the effect of nonanal on the trapping of fruit flies (Drosophila melanogaster) when used in combination with a commercial fruit fly lure. Inside a 30 centimeter (cm) by 30 cm cage are placed two commercial fruit fly traps. Inside each commercial fruit fly trap is placed 1 milliliter (mL) of a commercial fruit fly lure. In addition, in one trap (Trap 1) is placed a 1.5 mL vial containing 50 microliters (μL) dimethyl sulfoxide (DMSO), while in the other trap (Trap 2) is placed a 1.5 mL vial containing 50 μL of a solution of nonanal in DMSO. For each experiment 40 to 120 fruit flies are used. The attraction of starved Drosphila melanogaster males and females to a commercial lure and trap to which various amounts of nonanal were added is shown in FIG. 7B. In all experiments, 40 to 120 3-4 day old, 24 hours starved flies (males and females) were given a choice between two commercial fruit fly traps (sold under the tradename TERRO® traps; Model #BT2502; Senoret Chemicals Co., Inc., Lititz, Pennsylvania, United States of America). […] After 24 hours, flies in both traps were counted. […] After 24 hours, flies in both traps were counted.

[2] = tested on: male corn earworm (CEW, Helicoverpa zea); experiment: field trapping of male CEW in Hartstack traps, nonanal dose study; format: in vivo
Method: FIG. 10C is a graph showing the effectiveness of different doses of nonanal in field trapping of male corn earworm (CEW, Helicoverpa zea) using a commercial sex pheromone lure with different doses of nonanal. Effectiveness is measured as the number of male CEW captured per trap per day. The data for the two bars on the left are from traps with no commercial pheromone dispenser, while the data for the six bars on the right are from traps with the commercial pheromone dispenser in combination with the dispenser containing either paraffin oil alone (0 percent (%) nonanal) or a paraffin oil solution comprising 0.5% to 8% nonanal (weight to weight relative to the amount of the main component of the commercial sex pheromone).
Some of the traps also contained, adjacent to the glass vials, a lure comprising a rubber septum formulated with the commercial CEW sex pheromone. Assuming that the commercial pheromone lure contained about 2 mg of the major component (i.e., (Z)-11-hexadecenal), the solutions in the glass vials were prepared to contain various amounts (0%, 0.5%, 1%, 2%, 4%, or 8%) of nonanal on a weight to weight basis with the (Z)-11-hexadecenal.

Musca domestica = experiment: dual choice trapping cage assay with commercial fly trap attractant (STARBAR); format: in vivo; details: 24 hours
Source text: FIG. 8A is a schematic drawing showing a design for a dual choice free flight cage trapping assay used to determine the effect of nonanal on the trapping of house flies (Musca domestica) when used in combination with a commercial house fly lure. At the right of the drawing is shown a schematic of a 30 centimeter (cm) by 30 cm cage containing two commercial house fly traps (Trap 1 and Trap 2), each including a plastic cup fitted with a transparent lid that has an opening for the flies. An enlarged view of an individual trap is shown to the left side of the drawing. Inside each trap, at the bottom, is placed a commercial fly attractant as a lure. In addition, each trap is fitted with a 1.5 mL vial containing either 50 microliters (μL) dimethyl sulfoxide (DMSO) or 50 μL of a solution of nonanal in DMSO. For each experiment, 20 house flies are used.
The attraction of fed Musca domestica males and females to a commercial lure and a laboratory-built trap to which various amounts of nonanal were added is shown in […]. […] After 24 hours, house flies in both traps were counted. […]
The other trap in the dual choice trapping assay contained 50 mL of the commercial fly trap attractant lure plus a 50 μl of DMSO only. […] After 24 hours, flies in both traps were counted.

Drosophila melanogaster [3] = experiment: dual choice free flight cage trapping assay with glass vial traps (water or balsamic vinegar); format: in vivo; details: 24 hours
Source text: FIG. 4 is a schematic drawing showing a design for a dual choice free flight cage trapping assay used herein to determine the effect of nonanal on trapping fruit flies (Drosophila melanogaster). A 13 centimeter (cm) by 19 cm by 9.5 cm cage with a mesh opening on the top is equipped with two glass 5.5 cm by 2.5 cm glass vial traps, each equipped with a lid fitted with a truncated pipette tip. At the bottom of each glass vial trap is either water or a fermentation attractant (i.e., balsamic vinegar). Inside each glass vial trap is another smaller glass vial containing either a solution of nonanal in dimethyl sulfoxide (DMSO) or a DMSO without nonanal. The attraction of starved Drosphila melanogaster males and females to balsamic vinegar (Bellino, Cento Fine Foods, Deptford, New Jersey, United States of America) with and without 1 μg nonanal was studied in a dual choice trapping assay. Nonanal was placed in a glass vial, separately from the balsamic vinegar, but adjacent to it. In all experiments, 20 3-4 day old, 24 hours starved flies (males and females) were given a choice between two traps. […] After 24 hours, flies in both traps were counted. Various amounts of nonanal were dissolved in DMSO, and then 10 μl of nonanal DMSO solution were placed in a separate glass vial (12×32 mm, Thermo Fisher Scientific. Waltham, Massachusetts, United States of America) adjacent to 0.4 ml of water in one trap. The other trap in the dual choice trapping assay contained 0.4 ml of water plus a separate vial containing 10 μl of DMSO. Twenty 3-4 day old, 24 hours starved flies (males and females) were given a choice between the two traps. After 24 hours, flies in both traps were counted. […] N=10. […] The attraction of starved Drosphila melanogaster males and females to balsamic vinegar to which various amounts of nonanal were added is shown in FIG. 6. Various amounts of nonanal were dissolved in DMSO, and then 10 μl of nonanal DMSO solution were placed in a separate glass vial adjacent to 0.4 ml of balsamic vinegar in one trap. […] After 24 hours, flies in both traps were counted. […]

[4] = tested on: male corn earworm (CEW, Helicoverpa zea); experiment: field trapping of male CEW in Hartstack traps, nonanal and/or 1-hexanol; format: in vivo; details: for effectiveness in trapping male CEW, without commercial pheromone lure: 0.5% w/w level, without the commercial pheromone lure, sorghum or corn fields; for effectiveness of commercial lure in trapping male CEW when combined: 0.5% w/w with major component of commercial pheromone lure, used in combination with the commercial lure
Source text: FIG. 11 is a graph showing the results of a field trapping study of male com earworm (CEW, Helicoverpa zea) using traps containing a dispenser containing a solution of 0.5% nonanal and/or 0.5% 1-hexanol alone or also containing a dispenser for a commercial CEW sex pheromone lure. Effectiveness is reported as number of male CEW capture per day per trap.
To determine the effects of 1-hexanol and combinations of 1-hexanol and nonanal, Hartstack traps with or without the commercial CEW sex pheromone lure and with or without one or both of nonanal and 1-hexanol were placed in sorghum or corn fields. Nonanal and 1-hexanol, if present, were present at 0.5% on a weight to weight basis with the major component of the commercial pheromone lure.

male CEW antenna = experiment: GC-EAD of female sex pheromone gland extract on male CEW antenna; parameters: species or system Helicoverpa zea; details: compound present in CEW female sex pheromone gland extract
Method: Based on the finding that nonanal attracts male CEW in laboratory and field behavioral studies, and as described hereinbelow, a study of the female sex pheromone gland extract of Helicoverpa zea was performed using a gas chromatography-electroantennograom detector (GC-EAD), a device that couples a GC to an insect antenna, the olefactory organ of insects that serves as a biological detector. In this device, the GC separates chemicals in a mixture and presents them to the antenna, and its electrophysiological responses reveal which chemicals it senses. […]
The sex pheromone glands of multiple CEW females were dissected and the contents extracted with hexane. […] In parallel to the GC, the electrophysiological response of the antenna is recorded to identify the active compounds. […] Gland extracts were also analyzed using gas chromatography-mass spectrometry (GC-MS) (6890 GC and 5975 MS, Agilent Technologies, Palo Alto, California, United States of America) The GC-MS was operated in pulsed splitless mode (15 psi for 0.5 min, then 6 psi) and equipped with a DB-WAXetr column (30 m×0.25 mm, df=0.25 μm, Agilent Technologies, Palo Alto, California, United States of America), and helium was used as the carrier gas at an average velocity of 34 cm/s. […]

Compound | flies trapped, nonanal trap versus trap without nonanal (Drosophila melanogaster [1]; increasing amount of nonanal in 50 μl DMSO with 1 mL commercial fruit fly lure, other trap lure plus DMSO) | attraction of flies to commercial fruit fly lure at too much nonanal (Drosophila melanogaster [1]; too much nonanal in 50 μl DMSO with 1 mL commercial fruit fly lure) | trap effectiveness with commercial CEW sex pheromone ([2]; e.g. 0.5% to 4% nonanal (w/w to (Z)-11-hexadecenal) added to trap with commercial CEW sex pheromone) | effectiveness in capturing male CEW, no commercial pheromone ([2]; traps containing only nonanal in paraffin oil, no commercial CEW sex pheromone lure) | house flies trapped, nonanal trap versus trap without nonanal (Musca domestica; increasing amount of nonanal in 50 μl DMSO with 50 mL commercial fly trap attractant lure, other trap lure plus DMSO, fed flies) | attraction of house flies to commercial fly trap attractant lure at too much nonanal (Musca domestica; too much nonanal in 50 μl DMSO with 50 mL commercial fly trap attractant lure) | attraction of flies to balsamic vinegar at highest amount of nonanal (Drosophila melanogaster [3]; highest amount of nonanal (1000 μg) in DMSO adjacent to balsamic vinegar) | flies trapped, nonanal trap versus trap without nonanal (Drosophila melanogaster [3]; increasing amount of nonanal (e.g., 1 μg) in DMSO in vial adjacent to 0.4 ml balsamic vinegar, other trap balsamic vinegar and DMSO) | flies trapped, nonanal trap versus trap without nonanal (Drosophila melanogaster [3]; nonanal at various concentrations in DMSO (10 μl) in vial adjacent to 0.4 ml water, other trap water and DMSO only, starved males and females) | effectiveness in trapping male CEW, without commercial pheromone lure [4] | effectiveness of commercial lure in trapping male CEW when combined [4] | EAD response of the antenna (male CEW antenna)
CCCCCCCCC=O [nonanal] | more flies are trapped | interferes with attraction of flies to the commercial fruit fly lure | increased the trap effectiveness | not effective in capturing male CEW | more house flies are trapped | interferes with attraction of flies to the commercial fly trap attractant lure | interferes with attraction of flies to balsamic vinegar | more flies are trapped | does not trap any more flies than traps containing water and DMSO only | not effective in trapping male CEW | improved its effectiveness | elicit an EAD response in the antenna
CCCCCCO [1-hexanol] |  |  |  |  |  |  |  |  |  | not effective in trapping male CEW | improved its effectiveness | elicit an EAD response in the antenna
